Data on 13 compounds can be found in article PMC10487316, “A high‐throughput microfluidic mechanoporation platform to enable intracellular delivery of cyclic peptides in cell‐based assays” (Bioengineering & Translational Medicine, 2023).

pEC50, pKd: −log10 of the molar value. Where a SMILES comes first, the peptide text is derived from it. Bridges are numbered along the chain shown (N, C = ends). [ ]: non-standard residue; d: D form. Lys(N3) = [N-]=[N+]=NCCCC[C@H](N)C(=O)O; R8 = C=CCCCCCC[C@@](C)(N)C(=O)O; Cba = N[C@@H](CC1CCC1)C(=O)O; S5 = C=CCCC[C@](C)(N)C(=O)O; βAla = NCCC(=O)O

The target of the first assay is T1, MDM2 (1–125) protein (Homo sapiens, UniProt Q00987).
T1 construct: made in house
T1 sequence (Q00987 1-125): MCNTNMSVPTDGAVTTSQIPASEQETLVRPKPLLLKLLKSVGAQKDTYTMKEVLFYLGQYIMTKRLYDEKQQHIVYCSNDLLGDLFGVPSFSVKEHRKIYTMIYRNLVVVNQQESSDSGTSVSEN
Put plainly: MDM2 binding assay (fluorescence anisotropy competition). Conditions: competition vs 50 nM FAM-labeled 12/1 peptide, 250 nM MDM2; heat map of Figure 5a. Here is the method: MDM2 protein generation and binding studies were performed as described.[17] […] The competing molecules were then titrated against the complex of the FAM‐labeled peptide and protein. Curve‐fitting was carried out using Prism 4.0 (GraphPad) to determine K D values. Readings were carried out with an Envision Multilabel Reader (PerkinElmer). […] All titrations were carried out in triplicate.
As for `CC(C)C[C@H]1NC(=O)[C@@H](CCCCN)NC(=O)[C@@H](CCC(=O)O)NC(=O)[C@@H](Cc2ccc(C(F)(F)F)cc2)NC(=O)[C@@H](CC(N)=O)NC(=O)C2(CCCC=CCCCCCC[C@](C)(C(=O)N[C@H](C)C(=O)N[C@H](C)C(=O)N[C@H](C)C(=O)N[C@H](C)C(=O)N[C@H](C)C(=O)N[C@H](C)C(N)=O)NC(=O)[C@@H](CC(C)C)NC1=O)CCCC=CCCC[C@@](C)(N)C(=O)N[C@H](C)C(=O)N[C@H](Cc1c[nH]c3cc(F)ccc13)C(=O)N[C@H](Cc1ccc(O)cc1)C(=O)N2` (some centres unmarked) [MP-231, H-R5*-DAla-DTrp(6-F)-DTyr-B5**-DAsn-DPhe(4-CF3)-DGlu-DLys-DLeu-DLeu-R8*-DAla-DAla-DAla-DAla-DAla-DAla-NH2], the negative-log Kd (pKd) is 9.28.
Still for that read-out and setting: for `CC(=O)N[C@H](CC(C)C)C(=O)N[C@H](C(=O)N[C@@H](Cc1ccccc1)C(=O)N[C@@H](CCC(=O)O)C(=O)N[C@@H](CCC(=O)O)C(=O)N[C@@H](Cc1ccc(O)cc1)C(=O)N[C@@H](Cc1c[nH]c2ccccc12)C(=O)N[C@@H](C)C(=O)N[C@@H](CCC(N)=O)C(=O)N[C@@H](CC(C)C)C(=O)N[C@H](C(=O)N[C@@H](CO)C(N)=O)[C@@H](C)O)[C@@H](C)O` [MP-191] (Ac-[dL]TFEEYWAQLTS-NH2) the value was 7.57; for `CC(=O)N[C@@H](CC(C)C)C(=O)N[C@H](C(=O)N[C@@H](Cc1ccccc1)C(=O)NC(C)(C)C(=O)N[C@@H](CCC(=O)O)C(=O)N[C@@H](Cc1ccc(O)cc1)C(=O)N[C@@H](Cc1c[nH]c2ccccc12)C(=O)N[C@@H](CCC(N)=O)C(=O)N[C@@H](CC(C)C)C(=O)N[C@@H](CC1CCC1)C(=O)NC(C)(C)C(=O)N[C@@H](CO)C(=O)N[C@@H](C)C(=O)N[C@@H](C)C(=O)O)[C@@H](C)O` [MP-788, Ac-Leu-Thr-Phe-Aib-Glu-Tyr-Trp-Gln-Leu-Cba-Aib-Ser-Ala-Ala-OH], 7.06; for `CC(C)C[C@@H]1NC(=O)[C@H](C)NC(=O)[C@H](Cc2c[nH]c3ccccc23)NC(=O)[C@H](Cc2ccc(O)cc2)NC(=O)[C@H](CCC(=O)O)NC(=O)[C@](C)(NC(=O)[C@H](Cc2ccccc2)NC(=O)[C@H](CO)NC(=O)[C@@H](NC(=O)[C@H](CO)NC(=O)CNC(=O)[C@H](CO)NC(=O)[C@H](CCCCN=[N+]=[N-])NC(=O)[C@H](CCC(=O)O)NC(=O)[C@@H](N)CCC(=O)O)[C@@H](C)O)CCCCCCC=CCCC[C@@](C)(C(N)=O)NC(=O)[C@H](CC(C)C)NC1=O` [MP-181, H-Glu-Glu-Lys(N3)-Ser-Gly-Ser-Thr-Ser-Phe-R8*-Glu-Tyr-Trp-Ala-Leu-Leu-S5*-NH2] (H-EE[Lys(N3)]SGSTSF[R8]EYWALL[S5]-NH2; staple 10-17), 7.77.
Same read-out and setting: for `CC(=O)N[C@@H](CC(C)C)C(=O)N[C@H](C(=O)N[C@@H](Cc1ccccc1)C(=O)N[C@@H](CCC(=O)O)C(=O)N[C@@H](CCC(=O)O)C(=O)N[C@@H](Cc1ccc(O)cc1)C(=O)N[C@@H](Cc1c[nH]c2ccccc12)C(=O)N[C@@H](C)C(=O)N[C@H](CCC(N)=O)C(=O)N[C@@H](CC(C)C)C(=O)N[C@H](C(=O)N[C@@H](CO)C(N)=O)[C@@H](C)O)[C@@H](C)O` [MP-793] (Ac-LTFEEYWA[dQ]LTS-NH2) the value was 6.94; for Ac-LTFEEYWAQLTS-NH2 [MP-190], 7.77; for `CC(=O)N[C@H](C(=O)N[C@@H](CO)C(=O)N[C@@](C)(Cc1ccccc1)C(=O)N[C@]1(C)CCCCCCC=CCCC[C@@](C)(C(N)=O)NC(=O)[C@H](CC(C)C)NC(=O)[C@H](CC(C)C)NC(=O)[C@H](C)NC(=O)[C@H](Cc2c[nH]c3ccccc23)NC(=O)[C@H](Cc2ccc(O)cc2)NC(=O)[C@H](CCC(=O)O)NC1=O)[C@@H](C)O` [MP-159, Ac-Thr-Ser-(ɑ-Me-Phe)-R8*-Glu-Tyr-Trp-Ala-Leu-Leu-S5*-NH2], 7.82.
On the same count and under the same terms, for `CC(=O)N[C@@H](CCCCN=[N+]=[N-])C(=O)NCCC(=O)N[C@@H](CC(C)C)C(=O)N[C@H](C(=O)N[C@@H](Cc1ccccc1)C(=O)N[C@]1(C)CCCCCCC=CCCC[C@@](C)(C(=O)N[C@@H](CCC(=O)O)C(=O)N[C@@H](C)C(=O)N[C@@H](C)C(=O)N[C@@H](C)C(=O)N[C@@H](C)C(=O)N[C@H](C)C(N)=O)NC(=O)[C@H](CC2CCC2)NC(=O)[C@H](CCC(N)=O)NC(=O)[C@H](C)NC(=O)[C@H](Cc2c[nH]c3ccccc23)NC(=O)[C@H](Cc2ccc(O)cc2)NC(=O)[C@H](CCC(=O)O)NC1=O)[C@@H](C)O` [MP-834, Ac-Lys(N3)-betaAla-Leu-Thr-Phe-R8*-Glu-Tyr-Trp-Ala-Gln-Cba-S5*-Glu-Ala-Ala-Ala-Ala-DAla-NH2] (Ac-[Lys(N3)][βAla]LTF[R8]EYWAQ[Cba][S5]EAAAA[dA]-NH2; staple 6-13) the value was 9.01; for `CC(C)C[C@@H]1NC(=O)[C@H](C)NC(=O)[C@H](Cc2c[nH]c3ccccc23)NC(=O)[C@H](Cc2ccc(O)cc2)NC(=O)[C@H](CCC(=O)O)NC(=O)[C@](C)(NC(=O)[C@H](Cc2ccccc2)NC(=O)[C@H](CO)NC(=O)[C@@H](NC(=O)[C@H](CO)NC(=O)CNC(=O)[C@H](CO)NC(=O)[C@H](CCCCN=[N+]=[N-])NC(=O)[C@H](CCC(=O)O)NC(=O)[C@H](CCC(=O)O)NC(=O)[C@@H](N)CCC(=O)O)[C@@H](C)O)CCCCCCC=CCCC[C@@](C)(C(N)=O)NC(=O)[C@H](CC(C)C)NC1=O` [MP-948, NH2-Glu-Glu-Glu-Lys(N3)-Ser-Gly-Ser-Thr-Ser-Phe-R8*-Glu-Tyr-Trp-Ala-Leu-Leu-S5*-NH2] (H-EEE[Lys(N3)]SGSTSF[R8]EYWALL[S5]-NH2; staple 11-18), 9.07.

The test system of a further assay is CellSensor p53RE-bla HCT116 cell line (p53 response element reporter). The assay is described as follows: HCT116 p53 β-lactamase reporter gene functional assay. Type of assay: cell-based, human. The conditions noted are these: 10 μM peptide; unprocessed vs DμVS-processed cells. As for the experimental part:
The CellSensor™ p53RE‐bla HCT116 cell line (K1640, Thermo Scientific) was used for functional characterization of p53 pathway activation by DμVS‐delivered peptides. Assay was performed similarly to how previously described.[17] These cells harbor a stable integration of a β‐lactamase reporter gene under control of the p53 response element. Cells were maintained in McCoy's 5A medium (16600‐082, Invitrogen) with 10% dialyzed FBS (26400‐036, Invitrogen), blasticidin (R210‐01, Invitrogen), and penicillin/streptomycin according to the manufacturer's protocol. Peptides were synthesized as previously described.[16], [17] To set up the assay, peptides were first pre‐plated in assay medium (Opti‐MEM supplemented with 0.1 mM non‐essential amino acids [11140‐050, Invitrogen], 1 mM sodium pyruvate [11360‐070, Invitrogen], and penicillin/streptomycin) without FBS on 384‐well plates (Corning 3764) or 96‐well plates (Corning 3603) using a HP D300E digital dispenser (20 μl 384‐well, 50 μl 96‐well). Maximum DMSO concentration used was 0.3% v/v. Cells were washed, resuspended with 0.05% v/v trypsin, spun down for 5 min at 300× g, and resuspended in PBS. Cells were 70‐μm strained and then brought to a final cell density of 3 × 10^6 cells/ml in PBS. Cell suspension was connected to 15 mL P‐CAP of the DμVS system, and 2 mL were used to prime the system. DμVS process was then initiated at 120 psi and 20 μL (384‐well) or 50 μL (96‐well) were dispensed to microplate in wells that were pre‐defined in the Telios software and pre‐loaded with peptides 2× in assay medium. Unprocessed cells were added to the microplate in parallel. After DμVS processing/mixing with peptide, cells were incubated at 37°C for 4 h. β‐lactamase activity was detected using the ToxBLAzer loading kit (K1095, Invitrogen) according to the manufacturer's protocol. Plates were measured using the PHERAstar FSX microplate reader with a LiveBlazer optic module (1400‐G3M‐FI‐410‐530‐460, BMG Labtech). Maximum p53 activity was defined as the β‐lactamase activity induced by 30 μM MP‐081 (meanpos). Percent activation of individual samples (S) was calculated using the following equation, where meanveh represents the mean of vehicle controls: % activation=S−meanveh/meanpos−meanveh×100
Z‐factors were calculated using the formula: Z^′=1−3σpos+3σveh/meanpos−meanveh
Meanpos and σ pos represent the mean and standard deviation, respectively, of the raw ratiometric values for 30 μM MP‐081 and meanveh and σ veh represent the mean and standard deviation of the vehicle controls. Dose–response data EC50 values were determined using the “[Agonist] versus response—Variable slope (four parameters)” algorithm in GraphPad Prism. Single concentration data for expanded peptide set were analyzed using unpaired T‐tests with false discovery rate (FDR, 1.00%) multiple comparisons correction using the two‐stage step‐up (Benjamini, Krieger, and Yekutieli) method. Data were accumulated from at least five independent experimental runs.
For the compound “H-Lys(N3)-betaAla-Leu-Thr-Phe-R8*-Glu-Tyr-Trp-Ala-Gln-Cba-S5*-Ser-Ala-Ala-Lys(mPEG24)-NH2 [MP-414]”, the “p53 activation at 10 μM with and without DμVS” value was “showed functional activity”.
On the same count and under the same terms, for `CC(C)C[C@@H](NC(=O)[C@@H](CC(C)C)NC(=O)[C@@H](CCCCN)NC(=O)[C@@H](CCC(=O)O)NC(=O)[C@@H](Cc1ccccc1)NC(=O)[C@@H](CC(N)=O)NC(=O)[C@@H](C)NC(=O)[C@@H](Cc1ccc(O)cc1)NC(=O)[C@@H](Cc1c[nH]c2ccccc12)NC(=O)[C@@H](C)NC(=O)[C@H](N)[C@H](C)O)C(=O)N[C@H](CCCNC(=N)N)C(N)=O` [MP-182, H-DThr-DAla-DTrp-DTyr-DAla-DAsn-DPhe-DGlu-DLys-DLeu-DLeu-DArg-NH2] (H-[dT][dA][dW][dY][dA][dN][dF][dE][dK][dL][dL][dR]-NH2) the value was “lack of activity”; for `CC(=O)N[C@@H](C(=O)N[C@H](C)C(=O)N[C@H](Cc1c[nH]c2ccccc12)C(=O)N[C@H](Cc1ccc(O)cc1)C(=O)N[C@H](C)C(=O)N[C@H](CC(N)=O)C(=O)N[C@H](Cc1ccccc1)C(=O)N[C@H](CCC(=O)O)C(=O)N[C@H](CCCCN)C(=O)N[C@H](CC(C)C)C(=O)N[C@H](CC(C)C)C(=O)N[C@H](CCCNC(=N)N)C(N)=O)[C@H](C)O` [MP-183, Ac-DThr-DAla-DTrp-DTyr-DAla-DAsn-DPhe-DGlu-DLys-DLeu-DLeu-DArg-NH2] (Ac-[dT][dA][dW][dY][dA][dN][dF][dE][dK][dL][dL][dR]-NH2), “lack of activity”; for `CC(=O)N[C@@H](CC(C)C)C(=O)N[C@H](C(=O)N[C@H](Cc1ccccc1)C(=O)N[C@]1(C)CCCCCCC=CCCC[C@@](C)(C(=O)N[C@@H](C)C(=O)N[C@@H](C)C(=O)N[C@@H](C)C(=O)N[C@@H](C)C(=O)N[C@@H](C)C(=O)N[C@H](C)C(N)=O)NC(=O)[C@H](CC(C)C)NC(=O)[C@H](CCC(N)=O)NC(=O)[C@H](C)NC(=O)[C@H](Cc2c[nH]c3ccccc23)NC(=O)[C@H](Cc2ccc(O)cc2)NC(=O)[C@H](CCC(=O)O)NC1=O)[C@@H](C)O` [MP-990, Ac-Leu-Thr-DPhe-R8*-Glu-Tyr-Trp-Ala-Gln-Leu-S5*-Ala-Ala-Ala-Ala-Ala-DAla-NH2] (Ac-LT[dF][R8]EYWAQL[S5]AAAAA[dA]-NH2; staple 4-11), “no activity in either format”.

Still in this assay, the particulars now being: DμVS-based assay format, expanded peptide set; read-out: DμVS-p53 reporter EC50 (validated hits, dose response).
“H-Lys(N3)-betaAla-Leu-Thr-Phe-R8*-Glu-Tyr-Trp-Ala-Gln-Cba-S5*-Ser-Ala-Ala-Lys(mPEG24)-NH2 [MP-414]”: the pEC50 is 6.00.
